Reference: patent publication US20240226062A1, “METHODS AND COMPOSITIONS FOR THE TREATMENT OF DISORDERS CHARACTERIZED BY A KIDINS220 DYSFUNCTION IN A SUBJECT” (priority 2021, published 2024)

Assays:
SNX27-retromer [1] = target: T1, SNX27-retromer (Mus musculus, UniProt Q9EQH3+Q9QZ88); experiment: Immunoblot of retromer complex and cargo protein levels in cultured astrocytes treated with R55; format: cell-based; conditions: 10 μM R55 for 48 h
T1 construct: endogenous in cells; host or cells: primary mouse cortical astrocytes
Description: (§1) Cell culture, treatment and transfection of primary cortical astrocytes, neurons and HEK293T cells. Mouse cortical astrocytes were prepared from cerebral cortices of 0 to 2-day-old mice pups according to standard methods. Cells seeded on plates or glass coverslips coated with poly-L-lysine (10 μg/ml) and laminin (4 μg/ml) at a density of 5×10^4 cells/cm2 in complete DMEM-F12. After 2 additional days (DIV14-16) astrocytes were treated with vehicle (DMSO), 100 nM bafilomycin Al (Sigma Co.; St. Louis, MO, USA) for 16 h or 10 μM R55 (MedKoo Biosciences, Inc.; Morrisville, NC, USA) for 48 h. Neuronal cultures were prepared from cerebral cortex of 19-day-old Wistar rat embryos, as we have previously described (Lopez-Menendez et al. 2019). Neurons were used after 10 days in vitro (DIV) for immunofluorescence and DIV14 for biochemical assays. Neurons were pretreated or treated for different times as indicated: 50 μM NMDA and 10 μM glycine (Sigma Co.; St. Louis, MO, USA); 200 μM DL-AP5 (Tocris; Bristol, UK); 5 μM R55. Excitotoxicity was induced by treatment with the NMDAR coagonists NMDA and glycine (referred as NMDA treatment). DL-AP5 or R55 were added 1 h or 48 h before NMDA treatment, respectively. […]
Preparation of protein extracts, immunoprecipitation, and immunoblot analysis. […] Equal amounts of total lysates or immunoprecipitates were resolved in SDS-PAGE and analysed by immunoblot. Membranes were incubated with different primary and secondary antibodies and immunoreactive bands were detected by ECL (PerkinElmer, Waltham, MA USA). […]
Quantitative and statistical analysis. Immunoblot signals were quantified by densitometric analysis with ImageJ 1.47d software (NIH) and normalized using β-actin, α-tubulin or GFAP band signal intensities. […] For immunofluorescence quantitative analysis of mice and human brain samples, fluorescence intensity of specific antibodies was measured at the ependymal barrier of lateral ventricles using ImageJ 1.47d software (NIH). […] In those regions, fluorescence signal above a certain threshold, stablished as background, was quantified. […]

primary cortical neurons [2] = experiment: Neuronal viability under NMDAR-induced excitotoxicity (MTT reduction assay, MAP2 staining); format: cell-based, rat; conditions: neurons incubated with NMDA for 6 h, R55 5 μM added 48 h before
Description: as §1, with “μM […].” for “μM R55.”, “or […]” for “or R55”, “respectively. HEK293T cells were cultured and transfected by standard procedures. HEK293T cells and DIV12-14 primary astrocytes were seeded at 50-60% confluence.” for “respectively.”

SNX27-retromer [3] = experiment: Immunoblot of NMDA-induced degradation of SNX27-retromer components and cargos in primary cortical neurons; format: cell-based, rat; conditions: 50 μM NMDA and 10 μM glycine; DL-AP5 (200 μM) added 1 h or R55 (5 μM) 48 h before
Description: (§2) Cell culture, treatment and transfection of primary cortical astrocytes, neurons and HEK293T cells. Mouse cortical astrocytes were prepared from cerebral cortices of 0 to 2-day-old mice pups according to standard methods. Cells seeded on plates or glass coverslips coated with poly-L-lysine (10 μg/ml) and laminin (4 μg/ml) at a density of 5×10^4 cells/cm2 in complete DMEM-F12. After 2 additional days (DIV14-16) astrocytes were treated with vehicle (DMSO), 100 nM bafilomycin Al (Sigma Co.; St. Louis, MO, USA) for 16 h or 10 μM R55 (MedKoo Biosciences, Inc.; Morrisville, NC, USA) for 48 h. Neuronal cultures were prepared from cerebral cortex of 19-day-old Wistar rat embryos, as we have previously described (Lopez-Menendez et al. 2019). Neurons were used after 10 days in vitro (DIV) for immunofluorescence and DIV14 for biochemical assays. Neurons were pretreated or treated for different times as indicated: 50 μM NMDA and 10 μM glycine (Sigma Co.; St. Louis, MO, USA); 200 μM DL-AP5 (Tocris; Bristol, UK); 5 μM R55. Excitotoxicity was induced by treatment with the NMDAR coagonists NMDA and glycine (referred as NMDA treatment). DL-AP5 or R55 were added 1 h or 48 h before NMDA treatment, respectively. HEK293T cells were cultured and transfected by standard procedures. HEK293T cells and DIV12-14 primary astrocytes were seeded at 50-60% confluence. Two days later cells were transfected in Opti-MEM by using 0.7 μl of Lipofectamine 2000@ reagent (ThermoFisher Scientific) and 0.7 μg of DNA per 24 multi-well plate, according to the manufacturer's specifications. Cells were fixed and processed for immunofluorescence or washed with PBS to prepare protein extracts for immunoprecipitation experiments.
Preparation of protein extracts, immunoprecipitation, and immunoblot analysis. Protein extracts from mice tissue, primary cell cultures or HEK293T cells were prepared in RIPA by standard methods. Briefly, cultured cells were lysed in RIPA buffer (25 mM Tris-HCl, pH 7.6, 1% Triton X-100, 0.5% sodium deoxycholate, 0.1% SDS, 150 mM NaCl) with protease and phosphatase inhibitors for 30 min at 4° C. Lysates were centrifuged for 30 min at 14,000 rpm at 4° C., and resulting supernatant was considered the total lysate soluble fraction. Different mouse tissues were dissected, frozen in dry ice and homogenized in RIPA buffer as above using potter and Polytron homogenizers. For immunoprecipitation, total lysates were incubated with anti-VPS35 or anti-GFP antibody for 4 h at 4° C., before binding immunocomplexes to protein A sepharose beads for 1 h at 4° C. Beads were washed four times with RIPA buffer before adding Laemli sample buffer. Note that sample boiling was avoided to detect properly AQP4 band by immunoblots. Equal amounts of total lysates or immunoprecipitates were resolved in SDS-PAGE and analysed by immunoblot. Membranes were incubated with different primary and secondary antibodies and immunoreactive bands were detected by ECL (PerkinElmer, Waltham, MA USA). Immunoblot images have been cropped for presentation.
Quantitative and statistical analysis. Immunoblot signals were quantified by densitometric analysis with ImageJ 1.47d software (NIH) and normalized using β-actin, α-tubulin or GFAP band signal intensities. Data were expressed relative to values obtained in their respective untreated controls or WT mice or astrocytes. For immunofluorescence quantitative analysis of mice and human brain samples, fluorescence intensity of specific antibodies was measured at the ependymal barrier of lateral ventricles using ImageJ 1.47d software (NIH). Specific ROIs were defined in each brain section at the ependymal barrier boundaries, identified by DAPI staining of ependymal cell nuclei. In those regions, fluorescence signal above a certain threshold, stablished as background, was quantified. In the case of human brain necropsies, nine randomly selected ROIs were used for the analysis. […]

SNX27-retromer [4] = experiment: Immunofluorescence of SNX27-retromer localization in primary cortical neurons under NMDA excitotoxicity; format: cell-based, rat
Description: as §1, with “μM […].” for “μM R55.”, “or […]” for “or R55”, “respectively. HEK293T cells were cultured and transfected by standard procedures. HEK293T cells and DIV12-14 primary astrocytes were seeded at 50-60% confluence.” for “respectively.”

[5] = system: trimeric Vps35-Vps29-Vps26 core; conditions: Mecozzi et al. 2014; cited from earlier work
AQP4 = experiment: Effect of bafilomycin A1 on protein levels in WT and Kidins220^f/f astrocytes (immunofluorescence and immunoblot); format: cell-based, mouse; conditions: for AQP4 levels: 100 nM bafilomycin A1 for 16 h
Description: as §2
Preparation of protein extracts, immunoprecipitation, and immunoblot analysis. Protein extracts from mice tissue, primary cell cultures or HEK293T cells were prepared in RIPA by standard methods. Briefly, cultured cells were lysed in RIPA buffer (25 mM Tris-HCl, pH 7.6, 1% Triton X-100, 0.5% sodium deoxycholate, 0.1% SDS, 150 mM NaCl) with protease and phosphatase inhibitors for 30 min at 4° C. Lysates were centrifuged for 30 min at 14,000 rpm at 4° C., and resulting supernatant was considered the total lysate soluble fraction. […] Equal amounts of total lysates or immunoprecipitates were resolved in SDS-PAGE and analysed by immunoblot. Membranes were incubated with different primary and secondary antibodies and immunoreactive bands were detected by ECL (PerkinElmer, Waltham, MA USA). […]
Quantitative and statistical analysis. Immunoblot signals were quantified by densitometric analysis with ImageJ 1.47d software (NIH) and normalized using β-actin, α-tubulin or GFAP band signal intensities. […]

[6] = system: mouse model with plaques and tangles; conditions: AD mouse model, Li et al. 2020; cited from earlier work
primary cortical neurons [7] = conditions: DL-AP5 preincubation; Lopez-Menendez et al. 2009; cited from earlier work
[8] = Kidins220^f/f deficient astrocytes, bafilomycin A1 treatment (not shown)

Cl.Cl.N=C(N)SCc1ccc(CSC(=N)N)s1 [R55, thiophene-2,5-diylbis(methylene) dicarbamimidothioate dihydrochloride]
AQP4 content (SNX27-retromer [1]): increased
Kidins220 levels (SNX27-retromer [1]): mild effect on elevating
VPS35 levels (SNX27-retromer [1]): mild effect on elevating
neuroprotection (MAP2 immunofluorescence and MTT-viability assays) (primary cortical neurons [2]): strong neuroprotection
NMDA-induced degradation of FAM21 (SNX27-retromer [3]): decreasing
NMDA-induced degradation of GluN2B subunit of the NMDAR (SNX27-retromer [3]): decreasing
NMDA-induced degradation of SNX27 (SNX27-retromer [3]): decreasing
NMDA-induced degradation of SNX27-retromer cargo Kidins220 (SNX27-retromer [3]): decreasing
cleavage of the calpain substrate spectrin into breakdown products (BDPs) (SNX27-retromer [3]): diminishment
SNX27, FAM21 and VPS35 localization in endocytic vesicles (SNX27-retromer [4]; neurons pretreated 48 h with 5 μM R55, then excitotoxic NMDA): preserved
retromer levels [5]: increased
retromer-mediated trafficking of cargos [5]: enhanced

CO/C1=C\C(C)=C\[C@@H](C)[C@@H](O)[C@@H](C)C/C(C)=C/C=C/[C@H](OC)[C@@H]([C@@H](C)[C@@H](O)[C@H](C)[C@@]2(O)C[C@@H](O)[C@H](C)[C@@H](C(C)C)O2)OC1=O [bafilomycin A1]
AQP4 levels (AQP4; Kidins220^f/f astrocytes): significant increase
loss of SNX27 (AQP4; [8]): not rescued
loss of VPS35 (AQP4; [8]): not rescued
AQP4 levels (AQP4; WT astrocytes): significant increase

Cl.N=C(N)SCc1cccs1 [R33, thiophen-2-ylmethyl carbamimidothioate hydrochloride]
VPS35 levels [6]: elevation
amyloid-beta (Aβ) levels and deposition [6]: significant decrease
astrocytes activation [6]: less
learning and memory [6]: significant improvement
synaptic integrity [6]: improved
tau phosphorylation [6]: reduced
retromer levels [5]: increased
retromer-mediated trafficking of cargos [5]: enhanced

NC(CCCP(=O)(O)O)C(=O)O (racemic) [DL-AP5]
NMDA-induced degradation of FAM21 (SNX27-retromer [3]): blocked
NMDA-induced degradation of GluN2B subunit of the NMDAR (SNX27-retromer [3]): decreasing
NMDA-induced degradation of SNX27 (SNX27-retromer [3]): blocked
NMDA-induced degradation of SNX27-retromer cargo Kidins220 (SNX27-retromer [3]): decreasing
cleavage of the calpain substrate spectrin into breakdown products (BDPs) (SNX27-retromer [3]): reduced
SNX27-retromer intracellular organization and colocalization of SNX27 and VPS35 (Pearson's correlation coefficient) (SNX27-retromer [4]; neurons pretreated 1 h with 200 μM DL-AP5, then 50 μM NMDA and 10 μM glycine): preserved
neuronal survival (primary cortical neurons [7]): preserves
